The test deals with Plasmodium falciparum. Description: Calibr Malaria Delayed Death Assay SOP. It is filed as functional, organism-based. The conditions noted are these: for IC50: Plasmodium falciparum.

What is called pIC50 is the negative decadic logarithm of the IC50, by convention in mol/L. The IC50 is the concentration that inhibits the measured activity by half. Low values mean greater potency in that assay, high ones weaker potency in that assay. `O=S(=O)(NC[C@H]1C[C@@H]2CCN1C[C@@H]2CN1CCCC1)c1ccc(Cl)cc1` gave a pIC50 of 5.945 and an IC50 of 1.13 µM.

For the compound `CN(C[C@H]1CN2CC[C@H]1C[C@@H]2CNC(=O)c1ccco1)c1ccccc1`, the pIC50 is listed as 5.968 and 1.13 µM corresponded to half-maximal inhibition (IC50).

For `O=C([C@@H]1Cc2[nH]cnc2CN1Cc1cc2ccccc2o1)N1CCCC1`, the pIC50 stood at 5.967 and the IC50 was 1.09 µM.

In turn, `COc1ccc2[nH]c(C[C@@H]3C[C@@H](C(C)C)[C@H](CN(C)C)C=C3C)nc2c1` showed a pIC50 of 6.245 and a half-inhibitory concentration (IC50) of 0.615 µM.

`CN1CC[C@H](N(Cc2ccccc2)Cc2ccccc2)C[C@H](O)C1` had a pIC50 of 6.066 and an IC50 of 0.897 µM.

With `CN1CC[C@H](N(Cc2ccccc2)CC2CC2)C[C@H](O)C1`, the pIC50 is 5.964 and the half-inhibitory concentration (IC50) was 1.57 µM.

`CC(C)n1ncc2c1NC(=O)CC21C(=O)Nc2c(Cl)ccc(Cl)c21` (stereo unspecified): the negative logarithm of the IC50 (pIC50) was 5.929 and the IC50 is 1.08 µM.

For the compound `O=S(=O)(NCC(c1ccsc1)N1CCCCCC1)c1cccs1` (stereo unspecified), the pIC50 worked out at 6.118 and the IC50 was 0.904 µM.

`Cc1cc(CN2CCC(CNS(=O)(=O)c3ccc(Br)s3)CC2)c(C)o1`: the pIC50 is 6.178 and the IC50 is 0.639 µM.

`O=C(NCCc1ccccc1)NCCN1CCC(c2cccs2)CC1` showed a pIC50 of 6.05 and an IC50 of 0.855 µM.

For the compound `COc1ccc(NC(=O)Nc2cnc(N3CCN(C)CC3)nc2)cc1Cl`, the pIC50 is 6.139 and it took 0.843 µM to reach half-maximal inhibition (IC50).

In turn, `CN(C)CC1CSCCCN1S(=O)(=O)Cc1cccc(F)c1` (stereo unspecified) showed a pIC50 of 6.26 and an IC50 of 0.751 µM.

`Cc1cc(S(=O)(=O)N2CCC(N3CCC(O)C3)CC2)c(Cl)cc1Cl` (stereo unspecified) showed a pIC50 of 5.897 and an IC50 of 0.958 µM.

`NCC1[C@H]2CN(Cc3cccc(Cl)c3)C[C@@H]12` (stereo partly specified) showed a negative logarithm of the IC50 (pIC50) of 6.278 and an IC50 of 0.553 µM.

Compound `COc1ccc(N2CCCC3(C2)CN(c2nncs2)CCO3)cc1` (stereo unspecified) had a pIC50 of 6.845 and an IC50 of 0.173 µM.

With `COc1cccc(-n2ccc3nc(N4CCCC4)ncc3c2=O)c1`, the pIC50 came out at 5.801 and half-maximal inhibition (IC50) was put at 1.47 µM.

`O=C(Cn1ccc2ccc(Br)cc21)NC[C@@H]1CCCN2CCCC[C@H]12`: the pIC50 is 5.89 and the IC50 was 1.28 µM.

`Cc1ccc(CNC(C)c2cc(F)ccc2N2CCN(C)CC2)o1` (stereo unspecified): the pIC50 came out at 6.454 and the IC50 was 0.329 µM.

`CCC(CC)(CN)NC(C)c1ccccc1` (stereo unspecified) gave a pIC50 of 6.003 and an IC50 of 0.924 µM.

Regarding `Cc1cnn(CCNCc2nccn2Cc2ccccc2)c1`, the pIC50 came out at 6.212 and the IC50 was 0.395 µM.

For the compound `Cn1ccnc1C(O)(CCNCc1ccc(Cl)o1)C(F)(F)F` (stereo unspecified), the negative logarithm of the IC50 (pIC50) was 5.844 and the IC50 is 1.74 µM.

For the compound `CC(O)CN1CCC(CN(C)Cc2cc(F)cc3cccnc23)CC1` (stereo unspecified), the pIC50 was determined as 5.98 and the 50% inhibitory concentration (IC50) was 1.12 µM.

With `CN(Cc1cc(F)cc2cccnc12)CC1CCN(CCO)CC1`, the pIC50 was determined as 6.165 and half-maximal inhibition (IC50) was put at 0.835 µM.

As for `CN(Cc1cc(Cl)cc2cccnc12)CC1CCN(CCO)CC1`, the pIC50 came out at 6.604 and the IC50 is 0.346 µM.

The compound `CC(C)(NCc1cccc(O)c1)c1ccc2c(c1)OCO2` gave a pIC50 of 5.935 and an IC50 of 0.894 µM.

In the case of `c1cc(N2CCC(CN3CCOCC3)CC2)c2sccc2n1`, the pIC50 came out at 6.066 and the IC50 was 0.867 µM.

On to `CNC(=O)CCN(C)CC1(c2ccc(Br)cc2)CC1`, for which the pIC50 came out at 6.438 and the midpoint of inhibition, the IC50, lay at 0.34 µM.

In turn, `CC(NCCc1nccn1Cc1ccccc1)c1cccs1` (stereo unspecified) showed a pIC50 of 5.98 and an IC50 of 1.29 µM.

With `CC(NCCc1nccn1Cc1ccccc1)c1ccsc1` (stereo unspecified), the pIC50 was determined as 6.094 and inhibition was half-maximal at 1 µM (IC50).

With `Cc1ccc(C(C)NCCc2nccn2Cc2ccccc2)o1` (stereo unspecified), the pIC50 is 5.88 and the IC50 was 1.26 µM.

For `CN1CCC(O)(CNCc2ccc(F)c(C(F)(F)F)c2)CC1`, the pIC50 was found to be 6.096 and half-maximal inhibition (IC50) was put at 0.75 µM.

Compound `CN(C)CCN(Cc1cccnc1)C(=O)c1ccn(-c2ccccc2)n1` showed a pIC50 of 5.955 and an IC50 of 0.876 µM.

For `O=C(CC1CCCC1)NCCNCc1cccc2c1OCCO2`, the pIC50 is on record as 6.128 and inhibition was half-maximal at 0.938 µM (IC50).

`CCN1CCCN(S(=O)(=O)c2cc3ccccc3o2)CC1` gave a pIC50 of 6.321 and a half-inhibitory concentration (IC50) of 0.532 µM.

Regarding `CN(C)c1ccccc1CN1CCCCC1CNS(C)(=O)=O` (stereo unspecified), the pIC50 is 6.043 and the IC50 is 1.08 µM.

`Cc1cccc(OC(C)C(=O)NCC2(N(C)C)CCCC2)c1` (stereo unspecified) showed a pIC50 of 6.11 and an IC50 of 0.76 µM.

`CCN(CC1CN(Cc2nc(C3CC3)no2)CCO1)c1cccnn1` (stereo unspecified): the pIC50 came out at 5.75 and 1.86 µM corresponded to half-maximal inhibition (IC50).

Consider `CC(C)(C)C(=O)NCCNCc1ccc(Cl)c2cccnc12`, for which the pIC50 was 6.099 and 0.703 µM corresponded to half-maximal inhibition (IC50).

Consider `Cc1ccc(S(=O)(=O)N2CCC(N3CCCCC3)CC2)cc1C`, for which the pIC50 worked out at 5.751 and inhibition was half-maximal at 2.13 µM (IC50).

The compound `Fc1ccc2c(C3=CCN(Cc4nnc(C5CCC5)o4)CC3)c[nH]c2c1` showed a pIC50 of 5.905 and an IC50 of 1.7 µM.

`Cc1cc(Cl)ccc1S(=O)(=O)NCC(C)N1CCN(C)CC1` (stereo unspecified): the pIC50 is recorded as 6.144 and it took 0.444 µM to reach half-maximal inhibition (IC50).

Take `CCOc1ccc(Br)cc1C1CCCCN1.Cl` (stereo unspecified): the pIC50 was found to be 6.053 and the IC50 is 0.737 µM.

`CCOc1ccc(Cl)cc1C1CCCCN1.Cl` (stereo unspecified) showed a pIC50 of 6.229 and an IC50 of 0.612 µM.

`Cc1c(C)n(CC(O)CN2CCN(CCO)CC2)c2c(Cl)cccc12.Cl` (stereo unspecified) gave a pIC50 of 6.075 and an IC50 of 0.95 µM.

`Cc1cc(C)c(CNCC(O)c2ccc(F)c(F)c2)c(C)c1.Cl` (stereo unspecified) had a pIC50 of 6.932 and an IC50 of 0.125 µM.

The compound `O=C(O)C(F)(F)F.c1ccc(C[C@H]2CN(C3CCOCC3)CC[C@H]2OCC2CC2)cc1` had a pIC50 of 6.236 and an IC50 of 0.757 µM.

`CN1CCC2(CCCN(c3nccc(C(F)(F)F)n3)C2)CC1.O=C(O)C(F)(F)F` gave a pIC50 of 6.246 and an IC50 of 0.771 µM.

In the case of `CC(C)N1CCC2(CCCN(c3nccc(C(F)(F)F)n3)C2)CC1.O=C(O)C(F)(F)F`, the pIC50 is listed as 6.114 and the IC50 is 0.55 µM.

In the case of `O=C(O)C(F)(F)F.c1ccc(N2CCCC3(CCN(Cc4ccsc4)C3)C2)nc1` (stereo unspecified), the pIC50 is on record as 6.157 and inhibition was half-maximal at 0.842 µM (IC50).

The compound `CC(C)C(=O)N1CCCC2(CCCN2CC2CCCC2)C1.O=C(O)C(F)(F)F` (stereo unspecified) showed a pIC50 of 5.828 and an IC50 of 1.15 µM.

For `O=C(O)C(F)(F)F.c1ccc(NC[C@@H]2CCC[C@@H]3CN(Cc4cccnc4)C[C@@H]32)nc1`, the pIC50 came to 5.946 and the IC50 was 1.22 µM.

Take `CC(C)Oc1ncnc2c1CCN(Cc1ccco1)CC2.O=C(O)C(F)(F)F`: the pIC50 is reported as 6.106 and the IC50 was 1.02 µM.

`Cc1ccc(CN2CCC3(CC2)CCN(Cc2ccoc2)CC3)cc1.O=C(O)C(F)(F)F.O=C(O)C(F)(F)F` gave a pIC50 of 6.821 and a 50% inhibitory concentration (IC50) of 0.202 µM.

With `Cc1ccc(CN2CCC3(CC2)CCN(Cc2ccco2)CC3)cc1.O=C(O)C(F)(F)F.O=C(O)C(F)(F)F`, the pIC50 was 6.236 and the IC50 was 0.555 µM.

With `Cc1ccc(CN2CCCC3(CCN(Cc4ccoc4)CC3)C2)cc1.O=C(O)C(F)(F)F.O=C(O)C(F)(F)F`, the pIC50 is 6.068 and half-maximal inhibition (IC50) required 1.11 µM.

The compound `O=C(O)C(F)(F)F.O=C(O)C(F)(F)F.c1cncc(N2CCCC3(CCN(CCN4CCCC4)CC3)C2)c1` showed a pIC50 of 5.977 and an IC50 of 1.02 µM.

The compound `CCN1CCC2(CC1)CC(NCc1cccs1)c1ccccc1O2.O=C(O)C(F)(F)F.O=C(O)C(F)(F)F` (stereo unspecified) had a pIC50 of 6.431 and an IC50 of 0.287 µM.

Consider `O=C(O)C(F)(F)F.O=C(O)C(F)(F)F.O=C(O)C(F)(F)F.c1ccc(CN2CCCC3(CCN(Cc4cccs4)C3)C2)nc1` (stereo unspecified), for which the pIC50 is recorded as 6.204 and the IC50 is 0.735 µM.

Consider `Cc1ccc(CN2CC[C@H]3[C@H](CC(Cn4cccn4)N3C)C2)s1.O=C(O)C(F)(F)F.O=C(O)C(F)(F)F.O=C(O)C(F)(F)F` (stereo partly specified), for which the pIC50 is 6.142 and 0.814 µM corresponded to half-maximal inhibition (IC50).

`CN1[C@H](Cn2cccn2)C[C@@H]2CN(Cc3cccs3)CC[C@@H]21.O=C(O)C(F)(F)F.O=C(O)C(F)(F)F.O=C(O)C(F)(F)F`: the pIC50 is reported as 6.221 and the IC50 is 0.593 µM.

As for `CN(Cc1ccco1)C[C@H]1OC[C@@H]2CCN(Cc3ccccn3)C[C@@H]21.O=C(O)C(F)(F)F.O=C(O)C(F)(F)F.O=C(O)C(F)(F)F`, the pIC50 is on record as 5.905 and the midpoint of inhibition, the IC50, lay at 1.72 µM.

Regarding `CCN1CCC2(CC1)CC(NCc1cccc(C)n1)c1ccccc1O2.O=C(O)C(F)(F)F.O=C(O)C(F)(F)F.O=C(O)C(F)(F)F` (stereo unspecified), the pIC50 is given as 6.22 and the IC50 was 0.78 µM.

For `CCN1CCC2(CC1)CC(NCc1ccncc1)c1ccccc1O2.O=C(O)C(F)(F)F.O=C(O)C(F)(F)F.O=C(O)C(F)(F)F` (stereo unspecified), the pIC50 amounted to 6.198 and the IC50 is 0.579 µM.

With `Br.Cc1cc(C)c(N(CC(O)CNCc2ccccc2)S(C)(=O)=O)c(C)c1` (stereo unspecified), the pIC50 was 6.525 and half-maximal inhibition (IC50) required 0.355 µM.

`Br.CCOc1ccc(Br)cc1C1CCCN1` (stereo unspecified) showed a pIC50 of 6.082 and an IC50 of 0.534 µM.

For `I.c1cc2c(cc1C1(CNC3=NCCN3)CCCC1)OCCO2`, the pIC50 worked out at 6.321 and inhibition was half-maximal at 0.547 µM (IC50).

For the compound `Clc1ccc(C2(CNC3=NCCN3)CC2)cc1.I`, the pIC50 is 6.323 and inhibition was half-maximal at 0.505 µM (IC50).

Regarding `Clc1ccc(C2(CNC3=NCCN3)CCCC2)cc1.I`, the pIC50 amounted to 6.736 and inhibition was half-maximal at 0.226 µM (IC50).

Source of the values: ChEMBL document CHEMBL3988442, “University of Dundee, Small-Polar-MMV Screening Library” (2021).
